For data set [1] the following is noted: before the X-ray changes; cited from earlier work.
The conditions of data set [2]: cited from earlier work; for annual risk of TD as fraction of the risk associated with haloperidol: relative to haloperidol.
For data set [3] the following is noted: combined data from many studies; cited from earlier work.
Data set [4] concerns the target D2 receptor (Homo sapiens, UniProt P14416). To be noted: relative to risperidone and olanzapine; cited from earlier work.
For data set [5] the following is noted: antipsychotic alone; cited from earlier work.

Chain of D2 receptor (P14416 whole entry): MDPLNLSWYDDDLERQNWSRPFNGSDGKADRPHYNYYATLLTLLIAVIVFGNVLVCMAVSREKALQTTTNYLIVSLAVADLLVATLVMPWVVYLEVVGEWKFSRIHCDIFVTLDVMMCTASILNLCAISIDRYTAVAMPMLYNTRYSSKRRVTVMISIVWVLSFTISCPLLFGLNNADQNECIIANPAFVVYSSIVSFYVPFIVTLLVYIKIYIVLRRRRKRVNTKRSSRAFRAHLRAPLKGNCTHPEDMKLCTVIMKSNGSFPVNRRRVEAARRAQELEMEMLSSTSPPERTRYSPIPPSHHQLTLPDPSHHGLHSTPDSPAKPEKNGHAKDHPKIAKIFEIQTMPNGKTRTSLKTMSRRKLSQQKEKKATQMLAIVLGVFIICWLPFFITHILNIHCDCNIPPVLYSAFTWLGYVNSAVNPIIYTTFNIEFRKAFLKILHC

As to `N[C@@H]1CONC1=O` [DCS], in data set [1], the antidepressant effect result was “prompt antidepressant effects”.
Take `Cc1cc2c(s1)Nc1ccccc1N=C2N1CCN(C)CC1` [olanzapine]: the “One year risk of TD” value in data set [2] (all patients) is recorded as 0.52%. In addition, in data set [2], the “annual risk of TD as fraction of the risk associated with haloperidol” value is “about 1/12”. For the same compound, the “relative risk of drug-induced acute EPS in declining order” value (from here on “relative risk of drug-induced acute EPS”) in data set [3] is “risperidone >ziprasidone >=olanzapine >quetiapine”.
As to `OCCOCCN1CCN(C2=Nc3ccccc3Sc3ccccc32)CC1` [quetiapine], the “dissociation from the dopamine receptor” value in data set [4] is reported as “fast dissociation”. Also, the adverse effect result (hypothetical cases) is “lightheadedness”. Further, for the setting “second hypothetical case, MDD, quetiapine 50 mg added to paroxetine 20 mg q d”, the “time until suicidality vanishes” value turned out to be 24 h. Besides, the “relative risk of drug-induced acute EPS” value in data set [3] was “risperidone >ziprasidone >=olanzapine >quetiapine”.
Turning to `Cc1nc2n(c(=O)c1CCN1CCC(c3noc4cc(F)ccc34)CC1)CCCC2` [risperidone], the “activity in the chronic mild stress (CMS) model” value in data set [5] is on record as “ineffective”. In addition, in data set [2], the “annual risk of TD as fraction of the risk associated with haloperidol” value is given as “⅙”.
Turning to `O=C1Cc2cc(CCN3CCN(c4nsc5ccccc45)CC3)c(Cl)cc2N1` [ziprasidone], the “relative risk of drug-induced acute EPS” value in data set [3] was “risperidone >ziprasidone >=olanzapine >quetiapine”.

Source of the values: US7973043B2, “Combination therapy for depression, prevention of suicide, and various medical and psychiatric conditions” (priority 2002, dated 2011).
